Earlier results, collected in patent publication US7374751B1, “QS-21 and IL-12 as an adjuvant combination” (Wyeth Holdings Corporation, priority 2001, dated 2008).

Details: clinical data, F/QS-21 formulation, immediately after injection

**Q.** Which local acute toxicity does the source give for QS-21 here?
**A.** The local acute toxicity was “associated with local acute toxicity immediately after injection”.
